Measured values as given in publication PMC6556873, “Rapid Covalent-Probe Discovery by Electrophile-Fragment Screening” (Journal of the American Chemical Society, 2019).
Like-named read-outs stand apart in the source and are kept apart here.

Tests used:
[1] = in vitro; parameters: species or system HB2, HEK293; conditions: human, ccd841 cells
[2] = in vitro; parameters: species or system HB2, CCD841; conditions: human, hek293 cells
[3] = target: T1, PCAF (Homo sapiens, UniProt Q92831); parameters: Intact protein LC/MS covalent labelling, fragments in pools of five, 200 uM each, 4 °C; conditions: 24 h, 4 °C, pool of five; 200 µM; covalent
T1 construct: gene KAT2B
T1 sequence (Q92831 whole entry, the tested form may be a part): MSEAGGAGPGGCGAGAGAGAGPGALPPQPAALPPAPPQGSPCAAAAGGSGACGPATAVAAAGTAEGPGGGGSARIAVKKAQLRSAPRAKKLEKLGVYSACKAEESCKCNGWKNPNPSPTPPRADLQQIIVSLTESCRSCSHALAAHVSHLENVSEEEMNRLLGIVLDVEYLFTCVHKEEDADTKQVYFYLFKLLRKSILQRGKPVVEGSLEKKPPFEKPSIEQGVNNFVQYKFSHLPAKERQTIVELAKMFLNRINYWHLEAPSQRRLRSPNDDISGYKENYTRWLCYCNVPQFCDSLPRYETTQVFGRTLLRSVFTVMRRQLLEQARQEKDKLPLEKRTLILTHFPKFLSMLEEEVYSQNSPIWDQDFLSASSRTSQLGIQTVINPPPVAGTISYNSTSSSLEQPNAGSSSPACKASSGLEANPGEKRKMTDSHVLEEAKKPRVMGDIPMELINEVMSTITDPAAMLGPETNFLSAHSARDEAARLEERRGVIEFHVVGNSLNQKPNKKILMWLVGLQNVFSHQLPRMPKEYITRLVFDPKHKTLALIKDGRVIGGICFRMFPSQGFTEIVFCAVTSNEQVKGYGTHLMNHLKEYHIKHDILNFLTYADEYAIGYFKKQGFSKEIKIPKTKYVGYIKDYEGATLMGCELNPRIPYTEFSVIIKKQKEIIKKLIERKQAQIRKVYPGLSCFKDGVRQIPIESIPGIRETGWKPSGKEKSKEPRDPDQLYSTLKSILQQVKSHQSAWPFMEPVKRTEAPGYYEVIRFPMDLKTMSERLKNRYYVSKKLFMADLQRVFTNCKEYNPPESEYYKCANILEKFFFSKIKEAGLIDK

[4] = target: T2, BSA (Bos taurus, UniProt P02769); parameters: Intact protein LC/MS covalent labelling, fragments in pools of five, 200 uM each, 4 °C; conditions: 24 h, 4 °C, pool of five; 200 µM; covalent
T2 construct: gene ALB
T2 sequence (P02769 whole entry, the tested form may be a part): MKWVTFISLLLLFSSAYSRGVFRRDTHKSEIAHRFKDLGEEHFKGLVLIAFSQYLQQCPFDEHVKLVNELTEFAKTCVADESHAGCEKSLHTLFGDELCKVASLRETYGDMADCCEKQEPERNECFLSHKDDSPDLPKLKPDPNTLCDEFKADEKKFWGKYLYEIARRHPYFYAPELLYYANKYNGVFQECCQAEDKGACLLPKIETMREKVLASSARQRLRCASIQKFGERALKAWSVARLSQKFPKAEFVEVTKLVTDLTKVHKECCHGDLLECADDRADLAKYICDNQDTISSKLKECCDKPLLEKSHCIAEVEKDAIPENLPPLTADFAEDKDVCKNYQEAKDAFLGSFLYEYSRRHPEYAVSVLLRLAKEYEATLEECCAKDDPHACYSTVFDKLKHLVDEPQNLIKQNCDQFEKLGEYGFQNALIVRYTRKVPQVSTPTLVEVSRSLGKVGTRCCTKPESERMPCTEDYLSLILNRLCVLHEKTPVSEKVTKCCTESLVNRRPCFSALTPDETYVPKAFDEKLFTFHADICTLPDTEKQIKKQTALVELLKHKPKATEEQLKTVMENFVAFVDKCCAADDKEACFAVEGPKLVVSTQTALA

[5] = target: T3, NUDT7 (Homo sapiens, UniProt P0C024); parameters: Intact protein LC/MS covalent labelling, fragments in pools of five, 200 uM each, 4 °C; conditions: 24 h, 4 °C, pool of five; 200 µM; covalent
T3 construct: residues 14-235, E. coli, pNIC28-Bsa4, N-terminal His6 tag removed by TEV, construct 26672 Da
T3 sequence (P0C024 14-235): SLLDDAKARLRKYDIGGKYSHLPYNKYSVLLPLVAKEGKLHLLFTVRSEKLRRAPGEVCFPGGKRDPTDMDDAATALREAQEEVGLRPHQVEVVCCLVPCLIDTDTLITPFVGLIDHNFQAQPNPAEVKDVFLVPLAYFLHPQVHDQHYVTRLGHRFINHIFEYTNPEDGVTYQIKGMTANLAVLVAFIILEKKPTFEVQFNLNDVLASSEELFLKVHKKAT

[6] = target: T4, OTUB2 (OTUB2A) (Homo sapiens, UniProt Q96DC9); parameters: Intact protein LC/MS covalent labelling, fragments in pools of five, 200 uM each, 4 °C; conditions: 24 h, 4 °C, pool of five; 200 µM; covalent
T4 construct: full length residues 1-234, E. coli BL21(DE3)-R3, His tag removed by TEV, construct 27312 Da
T4 sequence (Q96DC9 1-234): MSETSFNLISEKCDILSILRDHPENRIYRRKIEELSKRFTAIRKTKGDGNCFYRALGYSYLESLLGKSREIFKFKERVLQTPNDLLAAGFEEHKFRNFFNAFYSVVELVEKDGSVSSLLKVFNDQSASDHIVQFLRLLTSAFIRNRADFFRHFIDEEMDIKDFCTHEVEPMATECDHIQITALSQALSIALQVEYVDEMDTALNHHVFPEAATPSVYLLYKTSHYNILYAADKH

[7] = in vitro; parameters: species or system CCD841, HEK293; conditions: human, hb2 cells, read-out: HB-2 Cells Viability (%)

Row | SMILES | viability at 48 h, 10 µM [1] | viability at 48 h, 10 µM [2] | PCAF [3] | BSA [4] | NUDT7 [5] | OTUB2 [6] | viability at 48 h, 10 µM [7]
1 | CN(CC12CC3CC(CC(C3)C1)C2)C(=O)CCl [PCM-0102942] | 6.7% | 2.4% | 0 | 0 | 0.26 | 0.1 | 7.8%
2 | CC1CCN(C(=O)CCl)CC1 [PCM-0102945] | 108% | 88.3% | 0 | 0 | 0 | 0 | 103%
3 | CC(C)N(C(=O)CCl)C1CCCC1 [PCM-0102948] | 102% | 84.3% | 0 | 0 | 0.13 | 0 | 88.4%
4 | Cc1nn(C)c(C)c1NC(=O)CCl [PCM-0102949] | 83.8% | 99.6% | 0 | 0 | 0 | 0 | 93.9%
5 | O=C(CCl)NNC(=O)c1ccc(Cl)cc1 [PCM-0102953] | 82.1% | 82.8% | 0 | 0 | 0 | 0.18 | 83%
6 | O=C(CCl)NNC(=O)c1ccccc1Cl [PCM-0102954] | 72.3% | 91.3% | 0 | 0 | 0 | 0.8 | 91.9%
7 | C=CC(=O)Nc1cccc(C#N)c1 [PCM-0102956] | 102% | 74.5% | 0 | 0 | 0 | 0 | 104%
8 | Cc1ccc(CNC(=O)CCl)cc1F [PCM-0102959] | 84% | 62.6% | 0 | 0 | 0 | 0.5 | 86.6%
9 | C=CC(=O)N1CCC(C#N)(c2ccccn2)CC1 [PCM-0102960] | 110% | 104% | 0 | 0 | 0 | 0.06 | 102%
10 | C=CC(=O)Nc1cccc(Cl)c1 [PCM-0102961] | 103% | 80.4% | 0 | 0 | 0 | 0 | 97.3%
11 | C=CC(=O)NC(O)C(Cl)(Cl)Cl (stereo not shown) [PCM-0102963] | 89.7% | 94.7% | 0 | 0 | 0 | 0 | 102%
12 | CC(=O)c1cccc(NC(=O)CCl)c1 [PCM-0102965] | 11% | 1.9% | 0 | 0 | 0 | 0.36 | 2.5%
13 | C=CC(=O)N1CCC(n2ncc3ccccc32)C1 (stereo not shown) [PCM-0102966] | 95.1% | 86.3% | 0 | 0 | 0 | 0.42 | 105%
14 | Cc1sc(NC(=O)CCl)c(C)c1C [PCM-0102968] | 57.3% | 2.3% | 0 | 0 | 0 | 0 | 16.1%
15 | CS(C)(=O)=NC(=O)CCl [PCM-0102969] | 97.5% | 102% | 0 | 0 | 0 | 0 | 96.1%
16 | CC(c1cc2ccccc2o1)N(C)C(=O)CCl (stereo not shown) [PCM-0102971] | 34.1% | 10.1% | 0 | 0 | 0.66 | 0 | 13.3%
